Series [1] concerns Abl-tyrosine family kinases. Particulars: Shah et al. (2004) Science 305:399-401; cited from earlier work.
A further series relates to VV (strain WR). It is filed as cell-based, Vaccinia virus.
For series [2], the system named is VV extracellular enveloped virus (EEV). It is filed as cell-based, Vaccinia virus.
Series [3] relates to VV. It is filed as cell-based, Vaccinia virus.
The subject of another series is EPEC (strain 2389/69). Kind of series: EPEC actin pedestal formation on 3T3 cells. It is filed as cell-based, enteropathogenic E. coli.
The next series deals with HIV-1 Bal. Description: p24 production of macrophages infected with HIV-1 Bal. It is filed as cell-based.
Series [4] has as its system Mycobacterium tuberculosis (TB). It counts as cell-based.
Series [5] has as its system VV. The settings on record: 100 mg/kg/day via subcutaneous osmotic pump, 10^4 pfu VV intraperitoneally, four days post infection; FIG. 4.
The nature of series [6]: Tolerability of the drugs in uninfected mice.
For a further series, the system named is GFP-VV. It is filed as cell-based, Vaccinia virus.
The mark [7] stands for this setting: up to 100 mg/kg/day i.p., 10 day period.

These results are taken from patent US8765777B2, “Compositions and methods of use for tyrosine kinase inhibitors to treat pathogenic infection” (priority 2008, dated 2014).

The structures appear in SMILES notation. “Also recorded” adds a separate entry of the source. Where only a bound is given, the exact number is not on record here.

For `Cc1nc(Nc2ncc(C(=O)Nc3c(C)cccc3Cl)s2)cc(N2CCN(CCO)CC2)n1` [BMS-354825, N-(2-chloro-6-methylphenyl)-2-(6-(4-(2-hydroxyethyl)piperazin-1-yl)-2-methylpryimidin-4-ylamino)thiazole-5-carboxamide], the “potency relative to STI-571” value in [1] is “two-log increased potency”.

With `Cc1ccc(NC(=O)c2ccc(CN3CCN(C)CC3)cc2)cc1Nc1nccc(-c2cccnc2)n1` [STI-571, 4-[(4-Methyl-1-piperazinyl)methyl]-N-[4-methyl-3-[[4-(3-pyridinyl)-2-pyrimidinyl]amino]-phenyl]benzamide methanesulfonate], in the series with VV (strain WR), the actin tail formation entry is listed as “did not block actin tail formation”, the “average number of actin tails per cell” value is ~3 per cell, the “cells having no actin tails” value is recorded as 30% and the “number of actin tails per cell” value is reported as “no detectable effects”. In the series with VV (strain WR), the “reduction of average number of actin tails per cell” value was found to be 16 fold; the “viral replication (extranuclear DAPI staining) and transit of GFP-labeled virions to the cell periphery” value was “no effect”. Besides, the “VV actin motility, actin tail formation or number” value in the series on VV (strain WR) (methanesulfonate) is listed as “no discernable effect; also recorded: no difference in actin tail formation or number was evident”. In [2], the “formation of comets apposed to plaques” value is given as “blocked the formation” and the “reduction in PFU of supernatant on BSC-40 cells” value is on record as ~2 fold. In addition, the “amount of virus produced (viral replication)” value in the series on VV [3] is “nearly equivalent amounts of virus”. Also, in the series on EPEC (strain 2389/69) (25 μM), the EPEC pedestal formation result is “did not”. For the same compound, in the series on HIV-1 Bal (Cells + HIV-1 Bal + drug 1 μM, HIV-1 Bal alone 322 +/− 28), the “P24 day 7” value came to 287 ± 31 pg/mL. In addition, the “P24 day 14” value in the series on HIV-1 Bal (Cells + HIV-1 Bal + drug 1 μM, HIV-1 Bal alone 956 +/− 34) was found to be 744 ± 27 pg/mL. Also, in the series on HIV-1 Bal (Cells + HIV-1 Bal + drug 5 μM), the “P24 day 7” value is 212 ± 44 pg/mL and the “P24 day 14” value worked out at 556 ± 28 pg/mL. Moreover, in the series on HIV-1 Bal (Cells + HIV-1 Bal + drug 10 μM), the “P24 day 7” value was determined as 127 ± 22 pg/mL and the “P24 day 14” value amounted to 245 ± 31 pg/mL. For the same compound, in the series on HIV-1 Bal (Cells + drug 1 μM, no virus), the “P24 day 7” value is <10 pg/mL and the “P24 day 14” value is <10 pg/mL. Further, in the series on HIV-1 Bal (Cells + drug 5 μM, no virus), the “P24 day 7” value was <10 pg/mL and the “P24 day 14” value was <10 pg/mL. Further, in the series on HIV-1 Bal (Cells + drug 10 μM, no virus), the “P24 day 7” value is <10 pg/mL and the “P24 day 14” value is <10 pg/mL. In the series on HIV-1 Bal (dose dependent, 1-10 μM), the “reduction of viral replication (p24 levels)” value is on record as “up to 4 fold”. Besides, in [4], the “intercellular survival of M. tuberculosis” value was “increases the intercellular survival”. Moreover, the plaque formation entry with VV-WR is given as “did inhibit plaque formation”. Moreover, the “reduction of viral load (copies of VV UDG gene per 250 ng DNA of ovary)” value in the series with VV [5] is 4-5 logs. Further, the “weight and other adverse effects in uninfected animals” value in [6] (100 mg/kg/day, subcutaneously implanted osmotic pumps) is recorded as “no loss in weight or other adverse effects”. For the same compound, the tolerability entry in [6] (intraperitoneal injection, up to 100 mg/kg/day in saline, up to 10 days) was “well tolerated”. Moreover, in series [6] (setting [7]), the “pathology upon necropsy with drug alone” value is “no overt pathology” and the “weight loss with drug alone” value was “no indication of weight loss”.

As for `CC(C)(C)n1nc(-c2ccc(Cl)cc2)c2c(N)ncnc21` [PP2], the “concentrations that blocked actin tails” value in the series with VV (strain WR) is ≥ 25 µM. For the same compound, in the series on EPEC (strain 2389/69) (Abl−/−/Arg−/− cells), the “pedestals in Abl−/−/Arg−/− cells” value is on record as “not”. For the same compound, the pedestal formation result in the series on EPEC (strain 2389/69) (concentrations up to 100 μM, the highest tested) is “without effect”.

As to `Cc1ccc(NC(=O)c2ccc(CN3CCN(Cc4ccccc4)CC3)cc2)cc1Nc1nccc(-c2cccnc2)n1` [STI-X], in the series with GFP-VV, the actin tail formation result is “failed to form actin tails”; the “percentage of cells containing DAPI-stained extranuclear viral replication factories” value was 4%; the “replication centers (DAPI staining or α-Ptyr pAb) and actin motility” value is given as “still evident; also recorded: no effect”; the “viral entry (GFP-labeled virions and EVP staining)” value was “little detectable effect on viral entry”. Moreover, in the series on VV-WR, the plaque formation result is “reduced” and the “tolerability by the cells in plaque assays” value is on record as “well tolerated”.
